The text below walks through data of ChEMBL document CHEMBL1156042, “First stereoselective total synthesis and anticancer activity of new amide alkaloids of roots of pepper” (Bioorg Med Chem Lett, 2009).

Type in all cases: functional, cell-based
Experiment [1] relates to HT-29. The experiment in a line: Anticancer activity against human HT-29 cells by MTT method. (In general: Tetrazolium assays rely on reduction of a dye to a coloured formazan, in cell work by metabolically active cells.)
Experiment [2] has as its system MCF7. The experiment in a line: Anticancer activity against human MCF7 cells by MTT method.
The test system of experiment [3] is A549. The experiment in a line: Anticancer activity against human A549 cells by MTT method.
The mark [4] stands for this setting: Homo sapiens, HT-29, read-out: IC50.
[5] abbreviates: Homo sapiens, A549, read-out: IC50.

In brackets after ≈: the same amount, converted by molar mass.

In the case of `CCCCC[C@@H](O)[C@H](O)/C=C/C(=O)N1CCCCC1`, the results for the half-inhibitory concentration (IC50) in experiment [1] (setting [4]), in experiment [2] and in experiment [3] (setting [5]) were 125 µg/mL (≈ 464 µM), “Not Active” and 135 µg/mL (≈ 501 µM), respectively.
For the molecule `CCC[C@@H](O)[C@H](O)/C=C/C(=O)NCC(C)C`, the IC50 (as a rule, the concentration that gives 50% inhibition) in experiment [1] (setting [4]) was 181 µg/mL (≈ 789 µM); in experiment [2], “Not Active”; in experiment [3] (a549) it was “Not Active”.
For `CCCCC[C@@H](O)[C@@H](O)/C=C/C(=O)N1CCCCC1`, the IC50 result is “Not Active” in experiment [1] (ht-29), “Not Active” in experiment [2] and 182 µg/mL (≈ 676 µM) in experiment [3] (setting [5]).
